Test results published in the NIST ThermoML archive (doi:10.1021/je9004992).
± gives the expanded uncertainty stated by the source.

Assay: molar heat capacity at constant pressure
Conditions: Liquid, Small sample (50 mg) DSC

CCCCCCCC[n+]1ccn(C)c1.F[B-](F)(F)F [1-methyl-3-octylimidazolium tetrafluoroborate]
molar heat capacity at constant pressure [J/K/mol]
Conditions | 283.15 K | 288.15 K | 293.15 K | 298.15 K | 303.15 K | 308.15 K | 313.15 K | 318.15 K | 323.15 K
100 kPa | 489.23 ± 7.6 | 493.12 ± 7.6 | 496.79 ± 7.7 | 500.26 ± 7.8 | 503.51 ± 7.8 | 506.55 ± 7.8 | 509.38 ± 7.9 | 512 ± 7.9 | 514.41 ± 8
2000 kPa | 489.23 ± 7.6 | 493.12 ± 7.6 | 496.79 ± 7.7 | 500.25 ± 7.8 | 503.5 ± 7.8 | 506.55 ± 7.8 | 509.38 ± 7.9 | 512 ± 7.9 | 514.41 ± 8
4000 kPa | 489.23 ± 7.6 | 493.12 ± 7.6 | 496.79 ± 7.7 | 500.25 ± 7.8 | 503.5 ± 7.8 | 506.54 ± 7.8 | 509.37 ± 7.9 | 512 ± 7.9 | 514.41 ± 8
6000 kPa | 489.24 ± 7.6 | 493.11 ± 7.6 | 496.78 ± 7.7 | 500.24 ± 7.8 | 503.5 ± 7.8 | 506.54 ± 7.8 | 509.37 ± 7.9 | 512 ± 7.9 | 514.41 ± 8
8000 kPa | 489.24 ± 7.6 | 493.11 ± 7.6 | 496.78 ± 7.7 | 500.24 ± 7.8 | 503.49 ± 7.8 | 506.53 ± 7.8 | 509.37 ± 7.9 | 512 ± 7.9 | 514.41 ± 8
10000 kPa | 489.24 ± 7.6 | 493.11 ± 7.6 | 496.78 ± 7.7 | 500.24 ± 7.8 | 503.49 ± 7.8 | 506.53 ± 7.8 | 509.37 ± 7.9 | 511.99 ± 7.9 | 514.41 ± 8
12000 kPa | 489.24 ± 7.6 | 493.11 ± 7.6 | 496.78 ± 7.7 | 500.23 ± 7.8 | 503.48 ± 7.8 | 506.53 ± 7.8 | 509.36 ± 7.9 | 511.99 ± 7.9 | 514.42 ± 8
14000 kPa | 489.24 ± 7.6 | 493.11 ± 7.6 | 496.77 ± 7.7 | 500.23 ± 7.8 | 503.48 ± 7.8 | 506.52 ± 7.8 | 509.36 ± 7.9 | 511.99 ± 7.9 | 514.42 ± 8
20000 kPa | 489.24 ± 7.6 | 493.11 ± 7.6 | 496.76 ± 7.7 | 500.22 ± 7.8 | 503.47 ± 7.8 | 506.51 ± 7.8 | 509.35 ± 7.9 | 511.99 ± 7.9 | 514.42 ± 8
30000 kPa | 489.25 ± 7.6 | 493.1 ± 7.6 | 496.75 ± 7.7 | 500.2 ± 7.8 | 503.45 ± 7.8 | 506.49 ± 7.8 | 509.34 ± 7.9 | 511.98 ± 7.9 | 514.43 ± 8
40000 kPa | 489.26 ± 7.6 | 493.09 ± 7.6 | 496.73 ± 7.7 | 500.18 ± 7.8 | 503.42 ± 7.8 | 506.47 ± 7.8 | 509.32 ± 7.9 | 511.98 ± 7.9 | 514.44 ± 8
50000 kPa | 489.26 ± 7.6 | 493.09 ± 7.6 | 496.72 ± 7.7 | 500.16 ± 7.8 | 503.4 ± 7.8 | 506.45 ± 7.8 | 509.31 ± 7.9 | 511.97 ± 7.9 | 514.44 ± 8
60000 kPa | 489.27 ± 7.6 | 493.08 ± 7.6 | 496.7 ± 7.7 | 500.14 ± 7.8 | 503.38 ± 7.8 | 506.43 ± 7.8 | 509.3 ± 7.9 | 511.97 ± 7.9 | 514.45 ± 8
